# Tests used:
# Experiment in all cases: relative viability (nuclei count vs DMSO), 5 days (fraction); higher = more cells survive
# CUDC-101 + Tozasertib = compound: C#Cc1cccc(Nc2ncnc3cc(OC)c(OCCCCCCC(=O)NO)cc23)c1 [CUDC-101] + Cc1cc(Nc2cc(N3CCN(C)CC3)nc(Sc3ccc(NC(=O)C4CC4)cc3)n2)n[nH]1 [Tozasertib] (partner 0.1 µM)
# In short: (§1)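 Lung cancer cell lines were seeded in 1536-well plates and dosed by pin tool the next day, with either a single drug or a fixed anchor-drug dose combined with five library-drug doses (not always all listed) spaced in √10 steps. Five days later, one step fixed the cells and stained their nuclei (final 0.05% Triton X-100, 1% formaldehyde, 1 ug/ml Hoechst), and nuclei were counted on 4× images. Relative viability is the nuclei count in treated wells divided by the count in vehicle wells, and each value is the median of duplicate plates.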
# CUDC-101 + OSI-027 = compound: C#Cc1cccc(Nc2ncnc3cc(OC)c(OCCCCCCC(=O)NO)cc23)c1 [CUDC-101] + COc1cccc2cc(-c3nc([C@H]4CC[C@H](C(=O)O)CC4)n4ncnc(N)c34)[nH]c12 [OSI-027] (partner 0.5 µM)
# In short: as §1
# Vandetanib + Olaparib = compound: COc1cc2/c(=N/c3ccc(Br)cc3F)nc[nH]c2cc1OCC1CCN(C)CC1 [Vandetanib] + O=C(c1cc(Cc2n[nH]c(=O)c3ccccc23)ccc1F)N1CCN(C(=O)C2CC2)CC1 [Olaparib] (partner 8 µM)
# In short: as §1
# CUDC-101 + Foretinib = compound: C#Cc1cccc(Nc2ncnc3cc(OC)c(OCCCCCCC(=O)NO)cc23)c1 [CUDC-101] + COc1cc2c(Oc3ccc(NC(=O)C4(C(=O)Nc5ccc(F)cc5)CC4)cc3F)ccnc2cc1OCCCN1CCOCC1 [Foretinib] (partner 0.25 µM)
# In short: as §1
Cell Line,relative viability (CUDC-101 + Tozasertib; first compound 0.01 µM),relative viability (CUDC-101 + Tozasertib; first compound 0.03162 µM),relative viability (CUDC-101 + Tozasertib; first compound 0.1 µM),relative viability (CUDC-101 + Tozasertib; first compound 0.3162 µM),relative viability (CUDC-101 + Tozasertib; first compound 1 µM),relative viability (CUDC-101 + OSI-027; first compound 0.01 µM),relative viability (CUDC-101 + OSI-027; first compound 0.03162 µM),relative viability (CUDC-101 + OSI-027; first compound 0.1 µM),relative viability (CUDC-101 + OSI-027; first compound 0.3162 µM),relative viability (CUDC-101 + OSI-027; first compound 1 µM),relative viability (Vandetanib + Olaparib; first compound 0.02 µM),relative viability (Vandetanib + Olaparib; first compound 0.06325 µM),relative viability (Vandetanib + Olaparib; first compound 0.2 µM),relative viability (Vandetanib + Olaparib; first compound 0.6325 µM),relative viability (Vandetanib + Olaparib; first compound 2 µM),relative viability (CUDC-101 + Foretinib; first compound 0.01 µM),relative viability (CUDC-101 + Foretinib; first compound 0.03162 µM),relative viability (CUDC-101 + Foretinib; first compound 0.1 µM),relative viability (CUDC-101 + Foretinib; first compound 0.3162 µM),relative viability (CUDC-101 + Foretinib; first compound 1 µM)
HCC-15,0.383,0.368,0.314,0.322,0.238,0.697,0.696,0.674,0.73,0.584,0.72,0.677,0.782,0.713,0.722,1.09,0.993,0.966,1.09,0.933
LCLC-103H,0.54,0.494,0.485,0.418,0.322,0.45,0.42,0.485,0.435,0.433,0.729,0.657,0.529,0.698,0.707,0.753,0.854,0.808,0.751,0.513
HARA,0.116,0.108,0.101,0.0938,0.0704,0.509,0.442,0.322,0.348,0.171,0.624,0.821,0.681,0.867,0.883,0.903,0.78,0.853,0.611,0.285
BEN,0.54,0.505,0.452,0.47,0.427,0.336,0.259,0.348,0.281,0.292,1.21,1.02,1.03,1.04,1.08,0.822,0.547,0.804,0.581,0.648
